Like-named read-outs stand apart in the source and are kept apart here.
Key:
[1] = molecular target: full-length human PRMT1 isoform 1 (GST-tagged) (Homo sapiens, UniProt Q99873); experiment: PRMT1 Biochemical Assay (3H-SAM Flashplate, peptide substrate)
Source text: (§1) General Materials. S-adenosylmethionine (SAM), S-adenosylhomocysteine (SAH), bicine, Tween20, dimethylsulfoxide (DMSO), bovine skin gelatin (BSG), and Tris(2-carboxyethyl)phosphine hydrochloride solution (TCEP) were purchased from Sigma-Aldrich at the highest level of purity possible. ^3H-SAM was purchase from American Radiolabeled Chemicals with a specific activity of 80 Ci/mmol. 384-well streptavidin Flashplates were purchased from PerkinElmer.
Protein Expression. Recombinant baculovirus were generated according to Bac-to-Bac kit instructions (Life Technologies). […] Infections were carried out at 27° C. for 48 hours, harvested by centrifugation, and stored at −80° C. for purification.
Protein Purification. […] GST-tagged PRMT1 was eluted with 50 mM Tris, 2 mM glutathione, pH 7.8, dialysed in buffer A and concentrated to 1 mg/mL.
General Procedure for PRMT1 Enzyme Assays on Peptide Substrates. The assays were all performed in a buffer consisting of 20 mM Bicine (pH=7.6), 1 mM TCEP, 0.005% BSG, and 0.002% Tween 20, prepared on the day of use. […] DMSO (1 ul) was added to Columns 11, 12, 23, 24, rows A-H for the maximum signal control and 1 ul of SAH, a known product and inhibitor of PRMT1, was added to columns 11, 12, 23, 24, rows I-P for the minimum signal control. A cocktail (40 ul) containing the PRMT1 enzyme was added by Multidrop Combi (Thermo-Fisher). The compounds were allowed to incubate with PRMT1 for 30 min at room temperature, then a cocktail (10 ul) containing SAM and peptide was added to initiate the reaction (final volume=51 ul). […] The assays were stopped by the addition of non-radiolabeled SAM (10 ul) to a final concentration of 300 uM, which dilutes the ^3H-SAM to a level where its incorporation into the peptide substrate is no longer detectable. 50 ul of the reaction in the 384-well polypropylene plate was then transferred to a 384-well Flashplate and the biotinylated peptides were allowed to bind to the streptavidin surface for at least 1 hour before being washed once with 0.1% Tween20 in a Biotek ELx405 plate washer. The plates were then read in a PerkinElmer TopCount plate reader to measure the quantity of ^3H-labeled peptide bound to the Flashplate surface, measured as disintegrations per minute (dpm) or alternatively, referred to as counts per minute (cpm).
Where dpm=disintegrations per minute, cmpd=signal in assay well, and min and max are the respective minimum and maximum signal controls.
Where top and bottom are the normally allowed to float, but may be fixed at 100 or 0 respectively in a 3-parameter fit. The Hill Coefficient normally allowed to float but may also be fixed at 1 in a 3-parameter fit. Y is the % inhibition and X is the compound concentration.

[2] = molecular target: full-length human PRMT8 isoform 1 (Homo sapiens, UniProt Q9NR22); experiment: PRMT8 Biochemical Assay (3H-SAM Flashplate, peptide substrate); details: read-out: Biochemical IC50 PRMT8
Source text: as §1, with “(BSG), isopropyl-β-D-thiogalactopyranoside (IPTG),” for “(BSG),”
Substrates. Peptide representative of human histone H4 residues 31-45 was synthesized with an N-terminal linker-affinity tag motif and a C-terminal amide cap by 21st Century Biochemicals. The peptide was purified by high-performance liquid chromatography (HPLC) to greater than 95% purity and confirmed by liquid chromatography mass spectrometry (LC-MS). The sequence was Biot-Ahx-[…]-amide (SEQ ID NO.:8).
The resulting construct encodes an N-terminal GST tag and a thrombin cleavage sequence ([…] […] […] […] SPEF) (SEQ ID NO.:9) fused directly to Met 1 of PRMT8.
Protein Expression. E. coli (BL21(DE3) Gold, Stratagene) made competent by the CaCl2) method were transformed with the PRMT8 construct and ampicillin selection. Protein over-expression was accomplished by growing the PRMT8 expressing E. coli clone and inducing expression with 0.3 mM IPTG at 16° C. The culture was grown for 12 hours, harvested by centrifugation, and stored at −80° C. for purification.
Protein Purification. […] GST-tagged PRMT8 was eluted with 50 mM Tris, 2 mM glutathione, pH 7.8. Pooled fractions were cleaved by thrombin (10U) and dialysed in buffer A. GST was removed by reloading the cleaved protein sample onto glutathione sepharose column and PRMT8 was collected in the flow-through fractions. PRMT8 was purified further by ceramic hydroxyapatite chromatography. The column was washed with 50 mM phosphate buffer, 100 mM NaCl, 5% glycerol, 5 mM β-mercaptoethanol, pH 7.8 and PRMT8 was eluted by 100 mM phosphate in the same buffer. Protein was concentrated and buffer was exchanged to 50 mM Tris, 300 mM NaCl, 10% glycerol, 5 mM β-mercaptoethanol, pH 7.8 by ultrafiltration. The purity of recovered protein was 89%.
General Procedure for PRMT8 Enzyme Assays on Peptide Substrates. The assays were all performed in a buffer consisting of 20 mM Bicine (pH=7.6), 1 mM TCEP, 0.005% BSG, and 0.002% Tween 20, prepared on the day of use. Compounds in 100% DMSO (1 ul) were spotted into a polypropylene 384-well V-bottom plates (Greiner) using a Platemate Plus outfitted with a 384-channel head (Thermo Scientific). DMSO (1 ul) was added to Columns 11, 12, 23, 24, rows A-H for the maximum signal control and 1 ul of SAH, a known product and inhibitor of PRMT8, was added to columns 11, 12, 23, 24, rows I-P for the minimum signal control. A cocktail (40 ul) containing the PRMT8 enzyme was added by Multidrop Combi (Thermo-Fisher). The compounds were allowed to incubate with PRMT8 for 30 min at room temperature, then a cocktail (10 ul) containing ^3H-SAM and peptide was added to initiate the reaction (final volume=51 ul). The final concentrations of the components were as follows: PRMT8 was 1.5 nM, ^3H-SAM was 50 nM, non-radiolabeled SAM was 550 nM, peptide was 150 nM, SAH in the minimum signal control wells was 1 mM, and the DMSO concentration was 2%. The assays were stopped by the addition of non-radiolabeled SAM (10 ul) to a final concentration of 400 uM, which dilutes the ^3H-SAM to a level where its incorporation into the peptide substrate is no longer detectable. 50 ul of the reaction in the 384-well polypropylene plate was then transferred to a 384-well Flashplate and the biotinylated peptides were allowed to bind to the streptavidin surface for at least 1 hour before being washed once with 0.1% Tween20 in a Biotek ELx405 plate washer. […]

[3] = single experiment or average of multiple experiments

full-length human PRMT8 isoform 1, sequence (Q9NR22 whole entry, canonical isoform): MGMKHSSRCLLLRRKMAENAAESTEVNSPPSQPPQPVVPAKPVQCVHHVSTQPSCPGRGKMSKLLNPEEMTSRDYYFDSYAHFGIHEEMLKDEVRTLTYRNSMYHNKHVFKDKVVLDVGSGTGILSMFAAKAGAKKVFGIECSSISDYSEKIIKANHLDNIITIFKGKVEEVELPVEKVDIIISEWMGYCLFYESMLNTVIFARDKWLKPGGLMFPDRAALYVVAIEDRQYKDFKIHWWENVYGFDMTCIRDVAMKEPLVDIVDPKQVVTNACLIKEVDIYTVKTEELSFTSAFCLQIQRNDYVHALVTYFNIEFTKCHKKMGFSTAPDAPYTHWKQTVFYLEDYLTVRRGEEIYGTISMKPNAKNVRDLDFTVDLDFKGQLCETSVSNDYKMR
full-length human PRMT1 isoform 1 (GST-tagged), sequence (Q99873 with tags, fused parts or gaps): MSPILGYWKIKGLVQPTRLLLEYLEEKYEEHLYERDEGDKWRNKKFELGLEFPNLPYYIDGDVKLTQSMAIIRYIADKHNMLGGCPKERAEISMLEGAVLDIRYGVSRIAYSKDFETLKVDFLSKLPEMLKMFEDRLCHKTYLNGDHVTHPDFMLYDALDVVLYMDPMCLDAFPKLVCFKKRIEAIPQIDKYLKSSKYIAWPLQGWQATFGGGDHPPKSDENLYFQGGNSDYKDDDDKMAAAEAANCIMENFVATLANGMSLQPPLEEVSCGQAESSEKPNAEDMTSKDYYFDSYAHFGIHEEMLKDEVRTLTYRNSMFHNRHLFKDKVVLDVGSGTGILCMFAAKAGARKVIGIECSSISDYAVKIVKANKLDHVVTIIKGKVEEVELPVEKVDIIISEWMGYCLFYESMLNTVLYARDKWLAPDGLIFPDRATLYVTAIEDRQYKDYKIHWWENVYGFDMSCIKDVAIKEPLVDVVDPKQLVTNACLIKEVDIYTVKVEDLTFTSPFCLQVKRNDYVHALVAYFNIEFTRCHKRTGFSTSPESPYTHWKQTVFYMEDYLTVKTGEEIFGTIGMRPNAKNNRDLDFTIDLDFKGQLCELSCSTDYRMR

IC50 [1] [nM] | IC50 [1, 3] [nM] | IC50 [2] [nM] | IC50 [2, 3] [nM] | SMILES
< 100 | 19.8 | < 100 | 47.3 | CNCCN(C)Cc1c[nH]nc1[C@H]1CC[C@H](O)C2(CCCCC2)C1 (racemic) [Compound 184, (1S,4S)-4-[4-({methyl[2-(methylamino)ethyl]amino}methyl)-1H-pyrazol-3-yl] spiro[5.5]undecan-1-ol]
< 100 | 13.5 | < 100 | 39.4 | CNCCN(C)Cc1c[nH]nc1[C@H]1CC[C@@H](O)C2(CCCCC2)C1 (single isomer, unassigned) [Compound 183]
< 100 | 10 | 101 to 1000 | 760 | CN(CCN)Cc1c[nH]nc1CCc1ccccc1 [Compound 9]
< 100 | 8.04 | < 100 | 11.6 | CNCCN(C)Cc1c[nH]nc1[C@H]1CC[C@]2(CCC(C)(C)O2)CC1 [Compound 104]
< 100 | 9.5 | < 100 | 14.5 | CNCCN(C)Cc1c[nH]nc1[C@H]1CC[C@@]2(CCOC2(C)C)CC1 [Compound 106, Methyl [2-(methylamino)ethyl]([3-[(5R,8R)-1,1-dimethyl-2-oxaspiro[4.5]decan-8-yl]-1H-pyrazol-4-yl]methyl)amine]
< 100 | 21.2 | < 100 | 55.4 | CNCCN(C)Cc1c[nH]nc1[C@H]1CC[C@@H](N(CC2CCOCC2)C(=O)CC(C)C)CC1 [Compound 107]
< 100 | 61 | 101 to 1000 | 252 | CCC(=O)N(CC1CCOCC1)[C@H]1CC[C@@H](c2n[nH]cc2CN(C)CCNC)CC1 [Compound 108]
< 100 | 26.7 | < 100 | 56 | CCC(=O)N(CC1CCOCC1)[C@H]1CC[C@H](c2n[nH]cc2CN(C)CCNC)CC1 [Compound 109]
< 100 | 13.1 | < 100 | 42.9 | CNCCN(C)Cc1c[nH]nc1C1CCC(=O)N(CCc2ccccc2)C1 (centres unmarked) [Compound 110]
< 100 | 22.4 | < 100 | 59.9 | CNCCN(C)Cc1c[nH]nc1[C@H]1CC[C@]2(CCN(Cc3ccc(OCCOC)cc3)C2=O)CC1 [Compound 111]
< 100 | 18.9 | < 100 | 69.2 | CNCCN(C)Cc1c[nH]nc1C1CCCC(COCCOC)C1 (centres unmarked) [Compound 112]
< 100 | 57.2 | 101 to 1000 | 119 | CNCCN(C)Cc1c[nH]nc1C1CCCC(COCCC(O)CO)C1 (centres unmarked) [Compound 113]
101 to 1000 | 101 | 101 to 1000 | 340 | CNCCN(C)Cc1c[nH]nc1C1CCC(N(CC(C)C)C(=O)CC2CCOCC2)CC1 (centres unmarked) [Compound 114]
< 100 | 88.7 | 101 to 1000 | 196 | CNCCN(C)Cc1c[nH]nc1C1CCC(=O)N(Cc2ccccc2)C1 (centres unmarked) [Compound 115]
< 100 | 9.8 | < 100 | 11.8 | CNCCN(C)Cc1c[nH]nc1[C@H]1CC[C@H](OCCOc2ccc(OCCOC)cc2)CC1 [Compound 116]
< 100 | 38.6 | 101 to 1000 | 143 | CNCCN(C)Cc1c[nH]nc1C1CCC(=O)N(CCC(C)C)C1 (centres unmarked) [Compound 117]
1010 to 3000 | 2160 | > 10000 | > 10000 | CNCCN(C)Cc1c[nH]nc1C1CC(OC(C)C)CC(OC(C)C)C1 (centres unmarked) [Compound 118]
101 to 1000 | 124 | 101 to 1000 | 728 | CCOCC1CC(COCC)CC(c2n[nH]cc2CN(C)CCNC)C1 (centres unmarked) [Compound 119]
< 100 | 10.1 | < 100 | 25.1 | CNCCN(C)Cc1c[nH]nc1[C@H]1CC[C@@]2(CCN(Cc3ccc(OCCOC)cc3)C2=O)CC1 [Compound 120]
< 100 | 15.2 | < 100 | 32.6 | CNCCN(C)Cc1c[nH]nc1C1CCC2(CC1)OC(C)CC(C)O2 (centres unmarked) [Compound 121]
101 to 1000 | 421 | 3010 to 10000 | 8370 | CNCCN(C)Cc1c[nH]nc1C1CC(OCC(C)C)CC(OCC(C)C)C1 (centres unmarked) [Compound 122]
< 100 | 8.8 | < 100 | 24.7 | CNCCN(C)Cc1c[nH]nc1[C@H]1CC[C@]2(CCN(Cc3ccc(F)cc3)C2=O)CC1 [Compound 123]
< 100 | 6.4 | < 100 | 10.8 | CNCCN(C)Cc1c[nH]nc1[C@H]1CC[C@]2(CCN(CC(C)C)C2=O)CC1 [Compound 124]
< 100 | 5.3 | < 100 | 9 | CNCCN(C)Cc1c[nH]nc1[C@H]1CC[C@@]2(CCN(Cc3ccc(F)cc3)C2=O)CC1 [Compound 125]
< 100 | 4 | < 100 | 6.5 | CNCCN(C)Cc1c[nH]nc1[C@H]1CC[C@@]2(CCN(Cc3cc(F)cc(F)c3)C2=O)CC1 [Compound 126]
< 100 | 16.5 | < 100 | 47.8 | CNCCN(C)Cc1c[nH]nc1[C@H]1CC[C@@]2(CCN(Cc3ccccc3)C2=O)CC1 [Compound 127]

Reference: patent US11512053B2, “Arginine methyltransferase inhibitors and uses thereof” (priority 2013, dated 2022)
